Holding throughout (assay): Initial-rate assay without 3-PGA, ATP and G-1-P both varied (0.01-10 mM and 0.1-25 mM), global fit to a sequential mechanism.
What all share (type): biochemical
Details in all cases: read-out: ATP Km (absence of 3-PGA)

Test [1] has as its target T1, SH2-E (Zea mays, UniProt P55241+Q947C0, N131R/T142F/A160T/Q261S/A396S/V416I/C424V/S444A).
T1 construct: SH2-E with wild type BT2 (SH2-E/BT2-WT), E. coli, purified
T1 sequence (Q947C0 1-475): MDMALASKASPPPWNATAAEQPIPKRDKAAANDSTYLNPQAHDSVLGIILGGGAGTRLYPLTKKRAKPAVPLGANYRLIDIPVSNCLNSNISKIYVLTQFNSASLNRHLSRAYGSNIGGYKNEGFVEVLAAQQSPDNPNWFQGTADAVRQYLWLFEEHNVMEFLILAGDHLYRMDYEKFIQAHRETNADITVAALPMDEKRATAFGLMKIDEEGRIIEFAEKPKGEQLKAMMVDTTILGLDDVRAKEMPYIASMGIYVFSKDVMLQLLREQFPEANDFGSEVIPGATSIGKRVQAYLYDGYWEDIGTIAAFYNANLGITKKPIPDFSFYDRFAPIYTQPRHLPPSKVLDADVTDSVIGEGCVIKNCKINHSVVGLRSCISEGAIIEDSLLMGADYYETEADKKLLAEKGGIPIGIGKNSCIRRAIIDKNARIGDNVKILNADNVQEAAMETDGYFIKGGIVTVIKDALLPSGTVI
T1 sequence (P55241 46-516 N131R/T142F/A160T/Q261S/A396S/V416I/C424V/S444A): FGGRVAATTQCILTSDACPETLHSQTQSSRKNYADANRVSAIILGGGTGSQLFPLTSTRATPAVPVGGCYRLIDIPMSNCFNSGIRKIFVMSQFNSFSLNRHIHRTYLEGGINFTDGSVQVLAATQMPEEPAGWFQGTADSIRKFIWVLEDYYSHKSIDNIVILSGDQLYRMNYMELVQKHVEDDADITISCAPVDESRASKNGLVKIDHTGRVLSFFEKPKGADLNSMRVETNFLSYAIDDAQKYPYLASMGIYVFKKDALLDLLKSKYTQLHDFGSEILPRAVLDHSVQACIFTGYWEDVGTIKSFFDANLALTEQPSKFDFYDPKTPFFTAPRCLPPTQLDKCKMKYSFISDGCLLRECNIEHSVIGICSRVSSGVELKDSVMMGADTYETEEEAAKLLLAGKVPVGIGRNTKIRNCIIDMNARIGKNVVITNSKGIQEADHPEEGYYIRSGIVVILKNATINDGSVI
From the text:
(§1) Activity in the absence of the activator 3PGA was examined. While 3PGA is a noted activator for plant AGPase, the mechanism of activation differs for the various AGPases. […] Thus, the term “activation fold” in the literature is merely an activity reported at single fixed substrate concentrations.
(§2) The small subunit mutant, MP, contains the first 198 amino acids of the small subunit of the maize endosperm enzyme and the last 277 amino acids from the potato tuber enzyme resulting in thirty-three amino acid sites that differ from the maize endosperm enzyme ([Cross et al., 2004]).

Test [2] has as its system T2, MP + SH2-E.
T2 construct: chimeric small subunit MP (maize 198 / potato 277 amino acids) with SH2-E
Excerpt: as §1, §2

Test [3] concerns the target T3, SH2-ISM (Zea mays, UniProt P55241+Q947C0, Q96G/D161G/A443R).
T3 construct: SH2-ISM with wild type BT2 (SH2-ISM/BT2-WT), E. coli, purified
T3 sequence (Q947C0 1-475): T1 sequence (Q947C0 1-475)
T3 sequence (P55241 46-516 Q96G/D161G/A443R): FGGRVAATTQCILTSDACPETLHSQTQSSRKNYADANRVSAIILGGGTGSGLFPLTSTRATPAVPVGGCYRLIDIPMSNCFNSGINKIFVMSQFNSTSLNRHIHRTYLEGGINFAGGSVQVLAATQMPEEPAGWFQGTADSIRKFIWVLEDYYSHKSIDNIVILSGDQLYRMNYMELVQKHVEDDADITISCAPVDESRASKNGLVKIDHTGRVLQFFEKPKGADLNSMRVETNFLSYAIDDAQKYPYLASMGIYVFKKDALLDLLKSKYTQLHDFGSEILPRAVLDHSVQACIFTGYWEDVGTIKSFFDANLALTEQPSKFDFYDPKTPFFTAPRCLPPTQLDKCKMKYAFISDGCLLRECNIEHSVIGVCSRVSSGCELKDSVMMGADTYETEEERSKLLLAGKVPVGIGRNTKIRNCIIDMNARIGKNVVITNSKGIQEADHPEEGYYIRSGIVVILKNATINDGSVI
Excerpt: as §1, §2

In test [4] the target is T4, SH2-ISM/BT2-BF (Zea mays, UniProt P55241+Q947C0, Q96G/E123G/D161G/R331K/K402R/A443R).
T4 construct: SH2-ISM co-expressed with BT2-BF, E. coli, purified
T4 sequence (Q947C0 1-475 E123G/R331K/K402R): T1 sequence (Q947C0 1-475) with E123G, R331K, K402R
T4 sequence (P55241 46-516 Q96G/D161G/A443R): T3 sequence (P55241 46-516 Q96G/D161G/A443R)
Excerpt: as §1, §2

Data on 1 compound can be found in article PMC6300691, “Enhancement of Heat Stability and Kinetic Parameters of the Maize Endosperm ADP-Glucose Pyrophosphorylase by Mutagenesis of Amino Acids in the Small Subunit With High B Factors” (Frontiers in Plant Science, 2018).

Where a chain is given by its changes, count along the chain named.

`Nc1ncnc2c1ncn2[C@@H]1O[C@H](COP(=O)(O)OP(=O)(O)OP(=O)(O)O)[C@@H](O)[C@H]1O` [ATP, adenosine 5'-triphosphate]: the Km came out at 2500 ± 430 µM in test [1], 320 ± 21 µM in test [2], 100 ± 48 µM in test [3] and 510 ± 100 µM in test [4].
